Columns and labels:
[1] = Partitioning of monomers between water and n-octanol, aqueous phase analysed by CZE; format: physicochemical; conditions: 2 mM monomer, 25°C
Description: To that aim, aqueous solutions of these monomers have been subjected to partitioning against n-octanol. After partitioning, the aqueous phase is analyzed by capillary electrophoresis and the molar ratio of the various monomers in the two phases determined. […] Hydrophobicity scale of acrylamide and N-substituted derivatives. Each monomer was dissolved in aqueous solution (3.5 mL) at a concentration of 2 mM and mixed with an equal volume of n-octanol for 2 min. After phase separation, the aqueous solution is centrifuged for 75 min at 2000 rpm. All operations at 25°C. The solution, after dilution, is added with internal standard (2.5 mM of pK 9.3 Immobiline) and analyzed by CZE. For abbreviations see Fig. 1. Other abbreviations: MMA: […] ACM: N-acryloyl morpholine; […]: dideoxy […].

[2] = Hydrolysis kinetics of free monomers under mild alkaline conditions, residual monomer quantified by capillary electrophoresis; conditions: 0.1N NaOH, 70°C

hydrophilicity (from partition coefficients P) [1]	logP ([1]; read-out: partition coefficient P (converted))	degradation kinetics [2]	hydrolysis constant (K) [2] [M⁻¹ s⁻¹]	hydrolysis constant, times smaller than that of acrylamide [2] [times]	SMILES
close to that of acrylamide	-0.62				C=CC(=O)NCCCCO [AAB]
twice as hydrophilic as acrylamide		first order kinetics	0.00013	8	C=CC(=O)NCCCO [AAP]
		a more rapid degradation kinetic			C=CC(=O)N1CCOCC1 [N-acryloyl morpholine, reference compound]
by far the most hydrophilic molecule		zero-order kinetics			C=CC(=O)NC(CO)(CO)CO [Trisacryl, N-acryloyl-2-amino-2-hydroxymethyl-1,3 propandiol, reference compound]
